Source: patent US9381175B2, “Method for treating Chikungunya virus infection” (priority 2014, dated 2016)

What was measured:
[1] = system: cell fusion of Sf21 cells infected with CS-WT viruses (CHIKV); test: Cell fusion assay, Sf21 cells infected with recombinant baculovirus CS-WT; conditions: for inhibition of cell fusion induced by CS-WT infection, primary screening: Sf21 cells, screening of drug library, antiviral agents and synthetic peptides, data not shown; for inhibition of cell fusion in CS-WT infected Sf21 cells: 5 mg/mL, 2 hours, pH 5.8, FIG. 11; for inhibition of the membrane fusion of Chikungunya viruses (summary of screening result): bicistronic baculovirus expression system in Sf21 cells
CHIKV [2] = test: Immunofluorescence assay of CHIKV infection in BHK-21 cells; assay type: cell-based, Chikungunya virus
CHIKV [3] = test: Cell protection assay against CHIKV infection (crystal violet); assay type: cell-based, Chikungunya virus; conditions: BHK-21, moi 0.05, 2 days, FIG. 18
BHK-21 cells = test: Cytotoxicity assay (crystal violet); assay type: cell-based; conditions: 1,000 μg/ml, BHK-21, 2 days, crystal violet OD 540, FIG. 18 left panel
Protocol: 10^5 BHK-21 cells per well of 96-well plate were cultured with 2% FCS DMEM. For cykotoxicity assay, cells were cultured in the presence or absence of drug at various concentrations in duplication for 2 days. For cell protection assay, cells were infected with CHIKV at moi of 0.05 in the presence or absence of drugs at various concentrations in duplication for 2 days. Cells were then stained with 0.1% crystal violet solution to observe clearance of the cell monolayer caused by the cytotoxic or cytopathic effect. Crystal violet was quantified by optical density (OD) 540.

CHIKV [4] = test: Western blot of CHIKV structural protein production in BHK-21 cells; conditions: FIG. 14
VEEV-TC83 = assay type: cell-based, Venezuelan equine encephalitis virus
[5] = system: cell fusion of Sf21 cells infected with VS-TC83 (VEEV-TC83) viruses; assay type: cell-based, Venezuelan equine encephalitis virus; conditions: for inhibition of fusion (fusion index) of Sf21 cells infected with VS-TC83 viruses: pH 5.8

Compound: O=C1[C@H](CC[C@H](O)c2ccc(F)cc2)[C@@H](c2ccc(O)cc2)N1c1ccc(F)cc1 [ezetimibe]
- inhibition of cell fusion induced by CS-WT infection, primary screening [1]: failed to inhibit the cell fusion

Compound: NC(=O)c1ncn([C@@H]2O[C@H](CO)[C@@H](O)[C@H]2O)n1 [ribavirin]
- inhibition of CHIKV infection in vitro (E2 immunofluorescence), comparison with suramin (CHIKV [2]; 12.5 μg/ml, BHK-21, M.O.I. 1, 20 hours, FIG. 15): inhibition efficacy of suramin is higher than that of ribavirin

Compound: Cc1ccc(C(=O)Nc2ccc(S(=O)(=O)O)c3cc(S(=O)(=O)O)cc(S(=O)(=O)O)c23)cc1NC(=O)c1cccc(NC(=O)Nc2cccc(C(=O)Nc3cc(C(=O)Nc4ccc(S(=O)(=O)O)c5cc(S(=O)(=O)O)cc(S(=O)(=O)O)c45)ccc3C)c2)c1 [suramin]
- concentrations at which the cells are significantly protected from CHIKV infection (CHIKV [3]): 15.6-1,000 μg/ml
- protection from the cytopathic effect of CHIKV infection (CHIKV [3]): protects BHK-21 cells from the cytopathic effect
- cytotoxicity (BHK-21 cells): minimal cytotoxicity
- inhibition of CHIKV infection in vitro (E2 immunofluorescence) (CHIKV [2]; 175 μM (2.5 mg/mL), BHK-21, M.O.I. 1, 20 hours, FIG. 15): inhibit CHIKV infection in vitro
- time-of-addition: stage in which the inhibition activity takes place (CHIKV [2]; 5 mg/mL (350 μM), immunofluorescence, FIG. 17 panels A-C): 0-2 hours post infection
- time-of-addition: inhibitory effect on addition at a later stage (CHIKV [2]; 5 mg/mL (350 μM), immunofluorescence, FIG. 17 panels D-F): almost no inhibitory effect
- in vitro inhibition efficacy against CHIKV, dose dependence (CHIKV [2]; BHK-21, 2,000 PFU CHIKV, 20 hours, FIG. 16): increases as the concentration of suramin increases
- in vitro inhibitory effect against CHIKV (CHIKV [2]; dose of less than 44 μM, FIG. 16 panel D): marginal inhibitory effect
- inhibitory effect on cell fusion (fusion index) ([1]; 55 μM, FIG. 13): minimal
- inhibition of cell fusion in CS-WT infected Sf21 cells [1]: remarkably inhibited the cell fusion
- inhibitory efficacy on cell fusion (fusion index), dose dependence ([1]; 3,500, 875, 219 or 55 μM, FIG. 12/13): inhibitory efficacy of suramin increases as the concentration of suramin increases
- inhibition of cell fusion induced by CS-WT infection, primary screening [1]: substantially inhibited the cell fusion
- inhibition of the membrane fusion of Chikungunya viruses (summary of screening result) [1]: block the membrane fusion
- inhibitory effect on the production of the structural proteins of CHIKV (CHIKV [4]; 44 μM, BHK-21 cells): only marginal inhibitory effect
- inhibitory effect on the production of the structural proteins of CHIKV, dose dependence (CHIKV [4]; BHK-21 cells, 10,000 PFU CHIKV, 20 hours): dose-dependency of the inhibitory effect

Compound: carrageenan
- inhibition of cell fusion induced by CS-WT infection, primary screening [1]: failed to inhibit the cell fusion

Compound: chondroitin sulfate
- inhibition of cell fusion in CS-WT infected Sf21 cells [1]: did not substantially inhibit the cell fusion

Compound: dextran sulfate
- inhibition of VEEV-TC83 infection (VEEV-TC83): elicited dose-dependent inhibition
- inhibition of the membrane fusion of Chikungunya viruses (summary of screening result) [1]: not effective to inhibit the membrane fusion
- inhibition of cell fusion induced by VS-TC83 virus, dose dependence [5]: inhibit the cell fusion induced by VS-TC83 virus in a dose-dependent manner
- inhibition of the membrane fusion of Venezuelan equine encephalitis virus (summary of screening result) [5]: can inhibit the membrane fusion
- inhibition of fusion (fusion index) of Sf21 cells infected with VS-TC83 viruses [5]: substantially inhibit the fusion

Compound: heparin
- inhibition of VEEV-TC83 infection (VEEV-TC83): elicited dose-dependent inhibition
- inhibition of the membrane fusion of Chikungunya viruses (summary of screening result) [1]: not effective to inhibit the membrane fusion
- inhibition of cell fusion induced by VS-TC83 virus, dose dependence [5]: inhibit the cell fusion induced by VS-TC83 virus in a dose-dependent manner
- inhibition of the membrane fusion of Venezuelan equine encephalitis virus (summary of screening result) [5]: can inhibit the membrane fusion
- inhibition of fusion (fusion index) of Sf21 cells infected with VS-TC83 viruses [5]: substantially inhibit the fusion
